These results are taken from US12528802B2, “Heterocyclic compound” (Takeda Pharmaceutical Company Limited, priority 2019, dated 2026).

The test concerns the target T1, glucosylceramide synthase (Homo sapiens, UniProt Q16739).
T1 construct: made in house; host or cells: Expi293F cells (transient expression, pcDNA3.3-TOPO vector); microsome fraction used as enzyme source
T1 sequence (Q16739 1-394): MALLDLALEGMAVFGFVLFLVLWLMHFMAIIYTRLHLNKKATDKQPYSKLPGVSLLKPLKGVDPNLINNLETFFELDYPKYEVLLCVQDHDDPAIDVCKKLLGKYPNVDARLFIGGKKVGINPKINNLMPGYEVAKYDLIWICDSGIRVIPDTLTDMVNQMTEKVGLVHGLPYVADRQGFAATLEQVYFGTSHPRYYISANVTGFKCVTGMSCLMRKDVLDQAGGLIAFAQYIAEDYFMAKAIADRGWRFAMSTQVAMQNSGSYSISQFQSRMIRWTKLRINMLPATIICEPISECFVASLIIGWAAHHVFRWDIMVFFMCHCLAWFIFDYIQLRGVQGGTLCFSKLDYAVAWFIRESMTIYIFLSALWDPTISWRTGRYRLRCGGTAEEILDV
Put plainly: Glucosylceramide synthase (GCS) enzyme assay, microsome fraction, C8 glucosylceramide quantified by Rapidfire MS/MS. The class given is biochemical. Conditions: test compound 10 μM; 1.7 μM UDP-glucose, 3 μM C8 ceramide; room temperature 60 min; read-out: GCS enzyme inhibitory rate at 10 μM (%) (% of control). Summed up: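 Test compound, 10 μM final, was run against human GCS from transfected Expi293F microsome fractions, using substrate solution of 6 μM C8 ceramide (in DOPC liposomes) plus 3.4 μM UDP-glucose, pH 7.5 Tris buffer, 60 min, room temperature. Product C8 glucosylceramide measured by Rapidfire MS/MS against an internal standard, % inhibition referenced to no-enzyme and DMSO wells.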
For the compound `O=C1c2ccnc(-c3ccncc3OCC(F)(F)F)c2CN1c1ccc(F)cc1` [Example 77, 2-(4-fluorophenyl)-4-[3-(2,2,2-trifluoroethoxy)pyridin-4-yl]-2,3-dihydro-1H-pyrrolo[3,4-c]pyridin-1-one], the inhibition at 10 µM was 91%.
With `O=C(c1ccc(-c2nccc3c2CN(c2ccc(F)cc2)C3=O)c(OC(F)F)c1)N1CCC1` [Example 78, 4-[4-(azetidine-1-carbonyl)-2-(difluoromethoxy)phenyl]-2-(4-fluorophenyl)-2,3-dihydro-1H-pyrrolo[3,4-c]pyridin-1-one] the figure was 79%; with `O=C1c2cnn(-c3ccc(F)cc3OCC(F)(F)F)c2CN1c1ccc(F)cc1` [Example 79, 5-(4-fluorophenyl)-1-[4-fluoro-2-(2,2,2-trifluoroethoxy)phenyl]-5,6-dihydropyrrolo[3,4-c]pyrazol-4(1H)-one], 75%.
For `COc1cc(F)ccc1-c1cncc2c1CN(c1ccc(F)cc1)C2=O` [Example 80, 7-(4-fluoro-2-methoxyphenyl)-2-(4-fluorophenyl)-1,2-dihydro-3H-pyrrolo [3,4-c]pyridin-3-one], the inhibition at 10 µM is 72%.
The figure for `Cn1cc(N2Cc3c(ccnc3-c3ccc(F)cc3OCC(F)(F)F)C2=O)cn1` [Example 81, 4-[4-fluoro-2-(2,2,2-trifluoroethoxy)phenyl]-2-(1-methyl-1H-pyrazol-4-yl)-2,3-dihydro-1H-pyrrolo[3,4-c]pyridin-1-one] is 86%; for `Cc1cc(N2Cc3c(ccnc3-c3ccc(F)cc3OCC(F)(F)F)C2=O)nn1C` [Example 82, 2-(1,5-dimethyl-1H-pyrazol-3-yl)-4-[4-fluoro-2-(2,2,2-trifluoroethoxy)phenyl]-2,3-dihydro-1H-pyrrolo[3,4-c]pyridin-1-one] it is 88%; for `O=C1c2ccnc(-c3ccc(F)cc3OCC(F)(F)F)c2CN1c1cnn(CC(F)(F)F)c1` [Example 83, 4-[4-fluoro-2-(2,2,2-trifluoroethoxy)phenyl]-2-[1-(2,2,2-trifluoroethyl)-1H-pyrazol-4-yl]-2,3-dihydro-1H-pyrrolo[3,4-c]pyridin-1-one] it is 91%.
`O=C1c2cncc(-c3ccccc3OCC(F)(F)F)c2CN1c1ccc(F)cc1` [Example 87, 2-(4-fluorophenyl)-7-[2-(2,2,2-trifluoroethoxy)phenyl]-1,2-dihydro-3H-pyrrolo[3,4-c]pyridin-3-one]: the inhibition at 10 µM is 86%.
With `CS(=O)(=O)c1ccc(N2Cc3c(ccnc3-c3ccc(F)cc3OCC(F)(F)F)C2=O)cc1` [Example 88, 4-[4-fluoro-2-(2,2,2-trifluoroethoxy)phenyl]-2-[4-(methanesulfonyl)phenyl]-2,3-dihydro-1H-pyrrolo[3,4-c]pyridin-1-one] the figure was 89%.
With `Cc1ccc(N2Cc3c(ccnc3-c3ccc(F)cc3OCC(F)(F)F)C2=O)cn1` [Example 89, 4-[4-fluoro-2-(2,2,2-trifluoroethoxy)phenyl]-2-(6-methylpyridin-3-yl)-2,3-dihydro-1H-pyrrolo[3,4-c]pyridin-1-one] the figure was 96%; with `O=C1c2ccnc(-c3ccc(F)cc3OCC(F)(F)F)c2CN1c1ccc(OC(F)F)nn1` [Example 90, 2-[6-(difluoromethoxy)pyridazin-3-yl]-4-[4-fluoro-2-(2,2,2-trifluoroethoxy)phenyl]-2,3-dihydro-1H-pyrrolo[3,4-c]pyridin-1-one], 85%; with `O=C1c2ccnc(-c3ccncc3OCC(F)(F)F)c2CN1c1ccc(OC(F)F)cn1` [Example 91, 2-[5-(difluoromethoxy)pyridin-2-yl]-4-[3-(2,2,2-trifluoroethoxy)pyridin-4-yl]-2,3-dihydro-1H-pyrrolo[3,4-c]pyridin-1-one], 99%.
With `Cc1nn(-c2ccc(F)cc2OCC(F)(F)F)c2c1C(=O)N(c1ccc(F)cc1)C2` [Example 92, 5-(4-fluorophenyl)-1-[4-fluoro-2-(2,2,2-trifluoroethoxy)phenyl]-3-methyl-5,6-dihydropyrrolo[3,4-c]pyrazol-4(1H)-one] the figure was 57%; with `O=C1c2ccnc(-c3ccc(F)cc3OCC(F)(F)F)c2CN1c1cnn(CC(F)F)c1` [Example 93, 2-[1-(2,2-difluoroethyl)-1H-pyrazol-4-yl]-4-[4-fluoro-2-(2,2,2-trifluoroethoxy)phenyl]-2,3-dihydro-1H-pyrrolo[3,4-c]pyridin-1-one], 95%; with `O=C1c2ccnc(-c3ccc(F)cc3OCC(F)(F)F)c2CN1c1cnn(C2CC2)c1` [Example 94, 2-(1-cyclopropyl-1H-pyrazol-4-yl)-4-[4-fluoro-2-(2,2,2-trifluoroethoxy)phenyl]-2,3-dihydro-1H-pyrrolo[3,4-c]pyridin-1-one], 97%.
In the case of `CC(C)Cn1cc(N2Cc3c(ccnc3-c3ccc(F)cc3OCC(F)(F)F)C2=O)cn1` [Example 96, 4-[4-fluoro-2-(2,2,2-trifluoroethoxy)phenyl]-2-[1-(2-methylpropyl)-1H-pyrazol-4-yl]-2,3-dihydro-1H-pyrrolo[3,4-c]pyridin-1-one], the inhibition at 10 µM stood at 99%.
Regarding `CC(C)n1cc(N2Cc3c(ccnc3-c3ccc(F)cc3OCC(F)(F)F)C2=O)cn1` [Example 97, 4-[4-fluoro-2-(2,2,2-trifluoroethoxy)phenyl]-2-[1-(propan-2-yl)-1H-pyrazol-4-yl]-2,3-dihydro-1H-pyrrolo[3,4-c]pyridin-1-one], the inhibition at 10 µM was determined as 96%.
In the case of `O=C1c2ccnc(-c3ccc(F)cc3OCC(F)(F)F)c2CN1c1ccc(OC2CCOCC2)cc1` [Example 98, 4-[4-fluoro-2-(2,2,2-trifluoroethoxy)phenyl]-2-{4-[(oxan-4-yl)oxy]phenyl}-2,3-dihydro-1H-pyrrolo[3,4-c]pyridin-1-one], the inhibition at 10 µM came to 100%.
With `O=C1c2ccnc(-c3ccc(F)cc3OCC(F)(F)F)c2CN1c1ncc(OC(F)F)cn1` [Example 99, 2-[5-(difluoromethoxy)pyrimidin-2-yl]-4-[4-fluoro-2-(2,2,2-trifluoroethoxy)phenyl]-2,3-dihydro-1H-pyrrolo[3,4-c]pyridin-1-one] the figure was 92%; with `O=C1c2ccnc(-c3ccc(F)cc3OCC(F)(F)F)c2CN1c1cnc(OC(F)F)cn1` [Example 100, 2-[5-(difluoromethoxy)pyrazin-2-yl]-4-[4-fluoro-2-(2,2,2-trifiuoroethoxy)phenyl]-2,3-dihydro-1H-pyrrolo[3,4-c]pyridin-1-one], 96%.
With `O=C1c2ccnc(-c3ccc(F)cc3OCc3ccccc3)c2CN1c1ccc(OC(F)F)nc1` [Example 101, 4-[2-(benzyloxy)-4-fluorophenyl]-2-[6-(difluoromethoxy)pyridin-3-yl]-2,3-dihydro-1H-pyrrolo[3,4-c]pyridin-1-one] the figure was 79%; with `CN(C)C(=O)c1ccc(N2Cc3c(ccnc3-c3ccc(F)cc3OCC(F)(F)F)C2=O)cc1` [Example 102, 4-{4-[4-fluoro-2-(2,2,2-trifluoroethoxy)phenyl]-1-oxo-1,3-dihydro-2H-pyrrolo[3,4-c]pyridin-2-yl}-N,N-dimethylbenzamide], 90%.
With `O=C1c2ccnc(-c3ccccc3OCC3CC(F)(F)C3)c2CN1c1ccc(F)cc1` [Example 103, 4-{2-[(3,3-difluorocyclobutyl)methoxy]phenyl}-2-(4-fluorophenyl)-2,3-dihydro-1H-pyrrolo[3,4-c]pyridin-1-one] the figure was 98%; with `O=C1c2ccnc(-c3ccncc3OCC(F)(F)F)c2CN1c1ccc(OC(F)F)cc1` [Example 104, 2-[4-(difluoromethoxy)phenyl]-4-[3-(2,2,2-trifluoroethoxy)pyridin-4-yl]-2,3-dihydro-1H-pyrrolo[3,4-c]pyridin-1-one], 99%.
For the compound `O=C1c2ccnc(-c3ccncc3OCC(F)(F)F)c2CN1c1ccc(OC(F)F)nc1` [Example 105, 2-[6-(difluoromethoxy)pyridin-3-yl]-4-[3-(2,2,2-trifluoroethoxy)pyridin-4-yl]-2,3-dihydro-1H-pyrrolo[3,4-c]pyridin-1-one], the inhibition at 10 µM was 96%.
The figure for `O=C1c2ccnc(-c3ccc(F)cc3OCC(F)(F)F)c2CN1c1ccc(OC2COC2)cc1` [Example 106, 4-[4-fluoro-2-(2,2,2-trifluoroethoxy)phenyl]-2-{4-[(oxetan-3-yl)oxy]phenyl}-2,3-dihydro-1H-pyrrolo[3,4-c]pyridin-1-one] is 94%; for `CS(=O)(=O)c1ccc(N2Cc3c(ccnc3-c3ccc(F)cc3OCC(F)(F)F)C2=O)nc1` [Example 108, 4-[4-fluoro-2-(2,2,2-trifluoroethoxy)phenyl]-2-[5-(methanesulfonyl)pyridin-2-yl]-2,3-dihydro-1H-pyrrolo[3,4-c]pyridin-1-one] it is 64%; for `CCS(=O)(=O)c1ccc(N2Cc3c(ccnc3-c3ccc(F)cc3OCC(F)(F)F)C2=O)cc1` [Example 110, 2-[4-(ethanesulfonyl)phenyl]-4-[4-fluoro-2-(2,2,2-trifluoroethoxy)phenyl]-2,3-dihydro-1H-pyrrolo[3,4-c]pyridin-1-one] it is 97%.
